Several values for one entry are separate records, joined by “and”; a condition that tells them apart may be missing. Equal entries are not always repeated. Where two headings read alike, the source gives them in different places.
Columns and labels:
[1] = system: Verticillium albo-atrum; experiment: Agar dilution plate; assay type: cell-based; details: Va; 100 ppm, 72 hours at 23° C
Protocol: (§1) Test compounds were incorporated in a Sabouraud's dextrose agar in an amount sufficient to provide the active ingredient in a concentration of about 100 ppm. A twenty-ml. sample of the agar mixture is placed in a petri dish and permitted to solidify. An agar sample is inoculated with the test organism set forth below and then covered and incubated for a period of about 72 hours at 23° C. After incubation, growth observations are made. The test results are recorded and the test is repeated twice for the purpose of comparison.
(§2) The data obtained with a variety of test organisms is shown in the table below, and ratings are shown as 0 or 5. O indicates no control, 5 indicates 100% effectiveness of the test compound against the specified organism.
Va= Verticillium albo-atrum

[2] = system: Venturia inaequalis; details: in vivo; further: key: 5: clean, no disease; 4: trace of disease; 3: slight disease; 2: moderate disease; 1: severe disease; 0: like controls
[3] = system: Stemphylium sarcinaeforme; experiment: Agar dilution plate; assay type: cell-based; details: Ss; 100 ppm, 72 hours at 23° C
Protocol: as §1, §2
Ss= Stemphylium sarcinaeforme

[4] = system: Pythium de Baryanum; experiment: Agar dilution plate; assay type: cell-based; details: Pd; 100 ppm, 72 hours at 23° C
Protocol: as §1, §2

[5] = system: Fusarium lycopersici; experiment: Agar dilution plate; assay type: cell-based; details: Fl; 100 ppm, 72 hours at 23° C
Protocol: as §1, §2

[6] = system: Monilinia fructicola; experiment: Agar dilution plate; assay type: cell-based; details: Mf; 100 ppm, 72 hours at 23° C
Protocol: as §1, §2

[7] = system: Aspergillus niger; experiment: Agar dilution plate; assay type: cell-based; details: An; 100 ppm, 72 hours at 23° C
Protocol: as §1, §2

[8] = system: Rhizoctonia solani; experiment: Agar dilution plate; assay type: cell-based; details: Rs; 100 ppm, 72 hours at 23° C
Protocol: as §1, §2

[9] = system: Collectotrichum lagenarium; experiment: Agar dilution plate; assay type: cell-based; details: Cl; 100 ppm, 72 hours at 23° C
Protocol: as §1, §2
Cl= Collectotrichum lagenarium

[10] = system: Piricularia oryzae; assay type: in vivo; set-up: scale not given here; details: Rice Blast, five days
[11] = system: Phytophthora infestans; assay type: in vivo; set-up: scale not given here; details: Tomato Late Blight, five days
[12] = system: Pseudomonas solaracaerum; assay type: cell-based; details: 100 ppm, 72 hours at 23° C
[13] = system: Monilinia fructicola; experiment: Spore germination inhibition; assay type: cell-based; details: for inhibition at 1 ppm / inhibition at 10 ppm: 24 hours; for inhibition at 100 ppm: 24 h, read-out: % Inhibition of Spore Germination
Source text: (§3) The test procedure involves the preparation of a 100, 10 or 1 ppm. suspension of test compound in water. The solutions are placed in one dram "opticlear" vials and separately inoculated with one drop of a spore suspension prepared from seven-day cultures of Aspergillus niger and 14-day old cultures of Monilinia fructicola and Stemphylium sarcinaeforme,all grown on potato-dextrose agar. The vials containing the separately inoculated solutions of test compounds are then capped and placed on a rotating tumbler for 24 hours to assure contact of the organism with the test compound. After 24 hours, the vials are removed and examined for inhibition of […].

[14] = system: Aspergillus niger; experiment: Spore germination inhibition; assay type: cell-based; details: 24 hours
Source text: as §3

[15] = system: Stemphylium sarcinaeforme; experiment: Spore germination inhibition; assay type: cell-based; details: Stemphylium sarciniforme; for inhibition at 100 ppm: 24 h, read-out: % Inhibition of Spore Germination; for inhibition at 1 ppm / inhibition at 10 ppm: 24 hours
Source text: as §3

| Compound | Agar Dilution Plate rating [1] | disease control index [2] | Agar Dilution Plate rating [3] | Agar Dilution Plate rating [4] | Agar Dilution Plate rating [5] | Agar Dilution Plate rating [6] | Agar Dilution Plate rating [7] | Agar Dilution Plate rating [8] | Agar Dilution Plate rating [9] | disease control index ([10]; 150 ppm) | disease control index ([10]; 300 ppm) | disease control index ([10]; 600 ppm) | disease control index ([10]; 1200 ppm) | disease control index ([11]; 150 ppm) | disease control index ([11]; 300 ppm) | disease control index ([11]; 600 ppm) | disease control index ([11]; 1200 ppm) | Agar Dilution Plate rating [12] | disease control index ([10]; at 75 ppm) | disease control index ([10]; at 500 ppm) | other results |
| --- | --- | --- | --- | --- | --- | --- | --- | --- | --- | --- | --- | --- | --- | --- | --- | --- | --- | --- | --- | --- | --- |
| CCN(CC)C(=S)SCC(CSC(=S)N(CC)CC)[N+](=O)[O-] [Example 2, 2-Nitrotrimethylene Diethyldithiocarbamate] | 0 | 5 | 0 | 0 | 0 | 0 | 0 | 0 | 5 (100% effectiveness of the test compound against the specified organism) | 4 | 4 | 5 | 5 | 4 | 4 | 5 | 5 | 0 |  |  |  |
| CN(C)CC1(CSC(=S)N(C)C)SC(=S)NC1=O (centres unmarked) [Example 12, Dimethyldithiocarbamic Acid S-Ester with 5-(Dimethylaminomethy)-5-(mercaptomethyl)rhodanine] |  | 5 |  |  |  |  |  |  |  |  | 5 |  |  | 5 | 5 |  |  |  |  |  |  |
| CCN(CC)C(=S)SC(C[N+](=O)[O-])c1ccccc1 (stereo not drawn) [Example 19, α-(Nitromethyl)benzyl Diethyldithiocarbamate] | 0 | 5 and 0 | 0 | 0 | 0 | 5 (100% effectiveness of the test compound against the specified organism) | 0 | 0 | 0 | 3 | 3 | 5 | 5 | 3 | 3 | 3 | 3 | 0 |  |  |  |
| CN(C)C(=S)SC(C[N+](=O)[O-])c1ccc(C(C[N+](=O)[O-])SC(=S)N(C)C)cc1 (stereo not drawn) [Example 20, α,α'-Bis(nitromethyl)-p-phenylenedimethylene Dimethyldithiocarbamate] |  |  |  |  |  |  |  |  |  |  |  |  |  | 3 | 3 | 4 | 5 |  |  |  |  |
| COc1cccc(C(C[N+](=O)[O-])SC(=S)N(C)C)c1OC(C)=O (stereo not drawn) [Example 21, 2-Acetoxy-3-methoxy-α-(nitromethyl)benzyl Dimethyldithiocarbamate] |  | 4 |  |  |  |  |  |  |  |  |  |  |  |  |  |  |  |  | 3 | 4 | disease control index ([11]; at 500 ppm): 5 |
| CN(C)C(=S)SC(C[N+](=O)[O-])c1cc([N+](=O)[O-])ccc1Cl (stereo not drawn) [Example 23, 2-Chloro-5-nitro-α-(nitromethyl)benzyl Dimethyldithiocarbamate] |  | 4 |  |  |  |  |  |  |  |  |  |  |  |  |  |  |  |  | 3 | 4 | disease control index ([11]; at 100 ppm): 5; disease control index ([11]; at 500 ppm): 5 |
| CC(=O)Oc1ccc(C(C[N+](=O)[O-])SC(=S)N(C)C)cc1 (stereo not drawn) [Example 24, 4-Acetoxy-α-(nitromethyl)benzyl Dimethyldithiocarbamate] | 5 (100% effectiveness of the test compound against the specified organism) | 5 | 5 (100% effectiveness of the test compound against the specified organism) | 0 | 0 | 5 (100% effectiveness of the test compound against the specified organism) | 0 | 0 | 5 (100% effectiveness of the test compound against the specified organism) |  |  |  |  |  |  |  |  | 0 | 3 | 4 | inhibition at 1 ppm [13]: 0%; inhibition at 10 ppm [13]: 100%; inhibition at 100 ppm [13]: 100%; inhibition at 1 ppm [14]: 0%; inhibition at 10 ppm [14]: 100%; inhibition at 100 ppm [14]: 100%; inhibition at 100 ppm [15]: 0%; disease control index ([11]; at 100 ppm): 3; disease control index ([11]; at 500 ppm): 5 |
| COc1ccc(C(C[N+](=O)[O-])SC(=S)N(C)C)cc1 (stereo not drawn) [Example 29, p-Methoxy-α-(nitromethyl)benzyl Dimethyldithiocarbamate] |  | 5 |  |  |  |  |  |  |  | 4 | 5 | 5 | 5 | 5 | 5 | 5 | 5 |  |  |  | inhibition at 1 ppm [13]: 0%; inhibition at 10 ppm [13]: 100%; inhibition at 100 ppm [13]: 100%; inhibition at 1 ppm [14]: 0%; inhibition at 10 ppm [14]: 0%; inhibition at 100 ppm [14]: 100%; inhibition at 100 ppm [15]: 100%; inhibition at 1 ppm [15]: 0%; inhibition at 10 ppm [15]: 100% |
| CN(C)C(=S)SC(C[N+](=O)[O-])c1ccco1 (stereo not drawn) [Example 32, α-(Nitromethyl)furfuryl Dimethyldithiocarbamate] |  | 5 and 0 |  |  |  |  |  |  |  | 0 | 0 | 5 | 5 | 4 | 4 | 5 | 5 |  |  |  |  |
| CN(C)C(=S)SC(C[N+](=O)[O-])c1ccc(Cl)s1 (stereo not drawn) [Example 34, 5-Chloro-α-(nitromethyl)-2-thenyl Dimethyldithiocarbamate] | 0 |  | 0 | 0 | 0 | 0 | 0 | 5 (100% effectiveness of the test compound against the specified organism) | 5 (100% effectiveness of the test compound against the specified organism) |  |  |  |  |  |  |  |  | 0 | 1 | 3 | inhibition at 1 ppm [13]: 0%; inhibition at 10 ppm [13]: 100%; inhibition at 100 ppm [13]: 100%; inhibition at 1 ppm [14]: 0%; inhibition at 10 ppm [14]: 100%; inhibition at 100 ppm [14]: 100%; inhibition at 100 ppm [15]: 100%; inhibition at 1 ppm [15]: 0%; inhibition at 10 ppm [15]: 100%; disease control index ([11]; at 500 ppm): 3 |
